Consider 11 compounds from patent US20060079447A1, “Stabilized A-beta protofibrillar aggregates” (priority 2004, published 2006).

Structures can show the parent of a compound that is named as a salt. Where two headings read alike, the source gives them in different places.

One test has as its target T1, Aβ (Homo sapiens, UniProt P05067).
T1 construct: purchased Keck Biotechnology Center at Yale University
Kind of test: Secondary screening: aggregate formation in the absence of seeding Aβ amyloid fibrils. It is filed as biochemical. The text has this: Four compounds—calmidazolium chloride, NPC 15437, phenamil methane sulfonate, and amiloride HCl were chosen for secondary screening, e.g., assaying for formation of stabilized Aβ protofibrillar aggregates in the absence of seeding Aβ amyloid fibrils. All four compounds to be retested were purchased from Sigma.

For test [1], the target named is T2, Aβ(1-40) fibrils / biotinyl-Aβ(1-40) (Homo sapiens, UniProt P05067).
T2 construct: purchased Keck Biotechnology Center at Yale University
Kind of test: Microplate Aβ(1-40) elongation screening assay, LOPAC library. It is filed as biochemical. The settings on record: for Initial stimulation observed: original LOPAC screen, deposition of biotinyl-Aβ(1-40) on immobilized fibrils. Here is the method:
Microtiterplate Elongation and Screening Assays. The Aβ(1-40) microplate elongation assay has been described (12). For screening the compound library, plates were coated with 100 ng Aβ(1-40) fibrils and washed. The assay was initiated by adding to each well, in order, 80 μl assay buffer [PBSA (phosphate-buffered saline containing 0.05% (w/v) sodium azide) containing 0.05% Tween 20], 10 μl of a 1 mM solution of test compound in DMSO, and 10 μl 100 nM biotinyl-Aβ in assay buffer. Plates were incubated 30 mins at 37° C., then washed and the signal developed as described using a streptavidin-europium linked fluorescence assay (12, 13). Each microplate collection of compounds was assayed in triplicate, and results reported as % inhibition compared to control wells lacking test compounds.
We screened a small library of 640 compounds, the LOPAC library (Sigma), using a microplate-based Aβ elongation assay. In this assay, plastic wells containing immobilized fibrils are incubated with a biotin-tagged monomer in the presence or absence of potential modifiers (13, 18). We found a number of compounds with potent abilities to enhance deposition of the biotin-tagged Aβ(1-40) (FIG. 1). Seven of the compounds were selected for further analysis:—amiloride HCl, phenamil methane sulfonate, naftopidil dihydrochloride, NPC 15437 dihydrochloride, calmidazolium chloride (R24571), 5-(nonoxyl)-tryptamine hydrogen oxalate, and L-α-methyl DOPA. The compounds have a wide variety of structures and biochemical properties. The structures of these seven compounds are shown in FIG. 9, along with the percent stimulation observed in the experiments.
We characterized the activity of CLC in the microplate assay in more detail.

Another test concerns the target T3, Aβ(1-40) (Homo sapiens, UniProt P05067).
T3 construct: purchased Keck Biotechnology Center at Yale University
The test can be described thus: Solution phase aggregation assay (ThT fluorescence, HPLC of centrifugation supernatants). It is filed as biochemical. The method, then:
Aβ(1-40) peptides were disaggregated just prior to use, as described previously (12, 14). Peptides (50 μM in fibril formation reactions, approximately 30 μM in CLC aggregation reactions) were incubated in […] at 37° C. Reaction progress was followed by ThT fluorescence and/or quantitative HPLC on centrifugation (30 mins, 315,000×g) supernatants of reaction aliquots (12, 15). The Cr value is the concentration of Aβ in solution when this value stops changing with time. For amyloid fibril growth, this value represents a position of dynamic equilibrium and is the reciprocal of the growth equilibrium constant for the amyloid fibrils (15); for the CLC-induced aggregation, the value is a more qualitative measure of the stability of the Aβ-CLC aggregates. Samples of aggregates were stored at −80° C. after snap-freezing of washed pellets. Reactions with CLC contained 10% DMSO from the CLC stock solution.
To confirm the microtiter plate assay, we carried out solution phase experiments using unlabelled Aβ(1-40). […] During the ThT lag phase, the amount of soluble, monomeric Aβ is reduced by about a factor of two, consistent with the formation of protofibrillar structures with low ThT response (2). In contrast, in the presence of 100 μM CLC, Aβ(1-40) is rapidly converted to a pelletable aggregate, so that within 1-2 hrs only 2-3 μM Aβ remains in solution after centrifugation (FIG. 3a,b); when these aggregates are isolated by sedimentation, they are found to contain a ratio of 4 moles of CLC per mole of Aβ(1-40) (results of independent analyses against both HPLC and MS standard curves). The significance of this ratio is not clear.

The next test deals with T4, Aβ (1-42) (Homo sapiens, UniProt P05067).
T4 construct: polymeric sheet intermediates using Aβ (1-42) and a compound Ro 90-7501
The settings on record: cited from earlier work.

Test [2] deals with CLC-Aβ(1-40) aggregates (stabilized Aβ protofibrillar aggregates made with calmidazolium chloride). Kind of test: solution phase aggregation with 100 µM CLC; HPLC of centrifugation supernatants.
[3] abbreviates: stimulation of Aβ deposition, microplate assay, read-out: EC50.

T1 sequence (P05067 672-711 limits assumed): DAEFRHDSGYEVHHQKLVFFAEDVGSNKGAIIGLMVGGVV
T2 sequence (P05067 672-711): as the sequence (P05067 672-711 limits assumed) above
T3 sequence (P05067 672-711): as the sequence (P05067 672-711 limits assumed) above
T4 sequence (P05067 672-713): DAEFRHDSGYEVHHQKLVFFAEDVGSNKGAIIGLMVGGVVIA

As to `NC(=Nc1ccccc1)NC(=O)c1nc(Cl)c(N)nc1N` [Phenamil methane sulfonate, phenamil methane sulfonate], the “Activity in enhancing aggregate formation” value (shortened to “Activity”) on Aβ was “sub-optimal activity”. The same compound gave an Initial stimulation observed in test [1] of 242%. Moreover, the concentration giving a half-maximal response (EC50) in test [1] (setting [3]) is at least 35.5 µM.
As for `CCCCCCCCCOc1ccc2[nH]cc(CCN)c2c1.O=C(O)C(=O)O` [5-(nonyloxy)-tryptamine hydrogen oxalate], in test [1], the 50% effective concentration (EC50) is at least 30.3 µM and the Initial stimulation observed stood at 136%.
For the compound “WT Aβ(1-40): wild type Aβ(1-40) peptide, SEQ ID NO:1”, the “Cr value, protofibril formation” value in the test with Aβ(1-40) (CLC-induced aggregation) came out at 1.6 µM. For the same compound, the “Cr value, fibril formation” value in the test with Aβ(1-40) (amyloid fibril growth) worked out at 0.8 µM.
On to `CCCCCCCCCCCCC(=O)N1CCCCC1CNC(=O)C(N)CCCCN` (stereo not shown) [NPC15437], for which the “Activity” value at Aβ was “sub-optimal activity”. In test [1], this compound displayed an Initial stimulation observed of 149%. In test [1] (setting [3]), the 50% effective concentration (EC50) was above 27.2 µM.
`Nc1ccc(-c2nc3ccc(-c4nc5ccc(N)cc5[nH]4)cc3[nH]2)cc1` [Ro 90-7501]: on Aβ (1-42), the “Effect on formation of mature fibrils” value is recorded as “retarded but did not block formation of mature fibrils”.
The compound `COc1ccccc1N1CCN(CC(O)COc2cccc3ccccc23)CC1` (stereo not shown) [Naftopidil dihydrochloride, naftopidil dihydrochloride] returned an Initial stimulation observed in test [1] of 150%. Besides, in test [1] (setting [3]), the concentration giving a half-maximal response (EC50) is at least 36.2 µM.
As for `N=C(N)NC(=O)c1nc(Cl)c(N)nc1N` [Amiloride HCl, amiloride HCl], the “Activity” value at Aβ was “sub-optimal activity”. In addition, the Initial stimulation observed in test [1] is on record as 96%. The EC50 in test [1] (setting [3]) is at least 38.5 µM.
In test [2], “wild type Aβ(1-40) (disaggregated, monomeric) (peptide)” gave a Cr (concentration of Aβ in solution when it stops changing with time) of 1.6 µM.
On to `Clc1ccc(C(c2ccc(Cl)cc2)n2cc[n+](CC(OCc3ccc(Cl)cc3Cl)c3ccc(Cl)cc3Cl)c2)cc1` (stereo not shown) [Calmidazolium chloride, calmidazolium chloride], for which the “Activity” value at Aβ was “potent stabilizing compound”. In addition, the “Stimulation of Aβ deposition compared to the elongation reaction in the absence of added compound” value in test [1] (at 100 μM) is recorded as “about six”. Moreover, in test [1] (deposition of 10 nM Aβ), the “Concentrations at which deposition is stimulated (dose response)” value fell in the range of 10 to 100 µM. Also, the Initial stimulation observed in test [1] is 598%. For the same compound, in test [1] (setting [3]), the EC50 is at least 21.4 µM. Also, the “ThT signal relative to the same weight of mature amyloid fibrils” value on Aβ(1-40) (100 μM CLC, after 14 days) is reported as “about 20%”. In addition, at Aβ(1-40) (100 μM CLC, within 1-2 hrs), the “Aβ remaining in solution after centrifugation” value lay in the range of 2 to 3 µM.
Regarding “P4: tetra-substituted Aβ(1-40) mutant with prolines at positions 9, 23, 30 and 37, SEQ ID NO:34 (DAEFRHDSPYEVHHQKLVFFAEPVGSNKGPIIGLMVPGVV; Amyloid-beta protein 40; UniProt P05067 672-711, looked up, variant G9P D23P A30P G37P)”, the “Stability of amyloid fibrils” value with Aβ(1-40) (scanning proline mutagenesis) was “same stability as wild type Aβ(1-40)”. In addition, the “Stability of CLC aggregates” value with Aβ(1-40) (scanning proline mutagenesis, 100 μM CLC) was “significantly destabilized compared to WT”.
`C[C@](N)(Cc1ccc(O)c(O)c1)C(=O)O` [L-α-methyl DOPA] returned an Initial stimulation observed in test [1] of 127%. In addition, in test [1] (setting [3]), the EC50 was at least 34.2 µM.

For orientation: EC50 means the concentration needed to bring the measured effect to its halfway point.
